Like-named read-outs stand apart in the source and are kept apart here.
Columns and labels:
Aspergillus niger = assay: Mycelial inhibition test
Fusarium moniloforma = assay: Mycelial inhibition test
Rhizoctonia solani = assay: Mycelial inhibition test
Lemna = assay: Algae control (aquatic weed control) test; format: in vivo; settings: read-out: Percent Aquatic Weed Control
Method: (§1) Representative compounds of the invention were tested as algicides by the following method. The algae test species were Lemna, Elodea and Spirolina. An acetone solution of the test compound and a small amount of an alkylarylpolyoxyethylene glycol-containing surfactant was prepared. This solution was mixed with a nutrient broth in a quantity sufficient to give a concentration of 2 ppm. A 240 ml container was filled with this mixture. A sample of the test algae was added to each container and the container was then placed in an illuminated environment and maintained at a temperature of about 20°C for incubation. The containers were observed periodically for algae growth (as compared to an untreated check). The algicidal effectiveness of the test compound was determined based on a final observation of algae growth after 7 to 10 days. The results of the test on a 0 to 100 basis -- 0 indicating no effectiveness and 100 indicating complete effectiveness -- are reported in Table III.

Spirolina = assay: Algae control (aquatic weed control) test; format: in vivo; settings: read-out: Percent Aquatic Weed Control
Method: as §1

Elodea = assay: Algae control (aquatic weed control) test; format: in vivo; settings: read-out: Percent Aquatic Weed Control
Method: as §1

Pythium ultimum = assay: Mycelial inhibition test
Botrytis cinerea = assay: Mycelial inhibition test
[1] = Aspergillus niger, 99% control, 25°C, 24 hours, 500 ppm acetone solution sprayed
[2] = Fusarium moniloforma, 99% control, 25°C, 24 hours, 500 ppm acetone solution sprayed
[3] = Rhizoctonia solani, 99% control, 25°C, 24 hours, 500 ppm acetone solution sprayed
[4] = 2 ppm, 20°C, 7 to 10 days, 0 no effectiveness, 100 complete effectiveness
[5] = Spirolina, 2 ppm, 20°C, 7 to 10 days, 0 no effectiveness, 100 complete effectiveness
[6] = Elodea, 2 ppm, 20°C, 7 to 10 days, 0 no effectiveness, 100 complete effectiveness
[7] = Pythium ultimum, 99% control, 25°C, 24 hours, 500 ppm acetone solution sprayed
[8] = Botrytis cinerea, 99% control, 25°C, 24 hours, 500 ppm acetone solution sprayed

SMILES | Mycelia Inhibition, micrograms/cm^2 for 99% control (Aspergillus niger; [1]) | Mycelia Inhibition, micrograms/cm^2 for 99% control (Fusarium moniloforma; [2]) | Mycelia Inhibition, micrograms/cm^2 for 99% control (Rhizoctonia solani; [3]) | inhibition at 2 ppm (Lemna; [4]) | inhibition at 2 ppm (Spirolina; [5]) | inhibition at 2 ppm (Elodea; [6]) | Mycelia Inhibition, micrograms/cm^2 for 99% control (Pythium ultimum; [7]) | Mycelia Inhibition, micrograms/cm^2 for 99% control (Botrytis cinerea; [8]) | Mycelia Inhibition, micrograms/cm^2 for 99% control (Aspergillus niger) | Mycelia Inhibition, micrograms/cm^2 for 99% control (Fusarium moniloforma) | Mycelia Inhibition, micrograms/cm^2 for 99% control (Rhizoctonia solani) | inhibition at 2 ppm (Lemna) | inhibition at 2 ppm (Spirolina) | inhibition at 2 ppm (Elodea) | Mycelia Inhibition, micrograms/cm^2 for 99% control (Pythium ultimum) | Mycelia Inhibition, micrograms/cm^2 for 99% control (Botrytis cinerea)
O=S(=O)(C=CSc1ccc(Cl)c(Cl)c1)C=CSc1ccc(Cl)c(Cl)c1 [Compound 7] | 1.1 micrograms/cm^2 | 1.0 micrograms/cm^2 | 0.97 micrograms/cm^2 | 70% | 95% | 90% | 0.78 micrograms/cm^2 | 0.70 micrograms/cm^2 |  |  |  |  |  |  |  | 
O=S(=O)(CCSc1ccc(Cl)cc1)CCSc1ccc(Cl)cc1 [Compound 10, bis-2-(4-chlorophenylthio)ethyl sulfone, reference compound] | > 1.7 micrograms/cm^2 | > 1.7 micrograms/cm^2 | > 1.7 micrograms/cm^2 | 0% | 0% | 0% | > 1.7 micrograms/cm^2 | > 1.7 micrograms/cm^2 |  |  |  |  |  |  |  | 
O=S(=O)(C=CSc1ccc(F)cc1)C=CSc1ccc(F)cc1 [Compound 5] | > 1.7 micrograms/cm^2 | > 1.7 micrograms/cm^2 | > 1.7 micrograms/cm^2 | 30% | 80% | 70% | > 1.7 micrograms/cm^2 | > 1.7 micrograms/cm^2 |  |  |  |  |  |  |  | 
O=S(=O)(C=CSc1ccc(Cl)cc1)C=CSc1ccc(Cl)cc1 [Compound 1] | 0.86 micrograms/cm^2 | > 1.7 micrograms/cm^2 | 0.9 micrograms/cm^2 | 68% |  | 97% | 0.22 micrograms/cm^2 |  |  |  |  |  |  |  |  | 
O=S(=O)(C=CSc1ccccc1)C=CSc1ccccc1 [Compound 8] | 0.50 micrograms/cm^2 | > 1.7 micrograms/cm^2 | 0.88 micrograms/cm^2 | 0% | 30% | 39% | > 1.7 micrograms/cm^2 | 1.5 micrograms/cm^2 |  |  |  |  |  |  |  | 
O=[N+]([O-])c1ccc(SC=CS(=O)(=O)C=CSc2ccc([N+](=O)[O-])cc2)cc1 [Compound 6] |  |  |  |  |  |  |  |  | 0.34 micrograms/cm^2 | > 1.7 micrograms/cm^2 | 0.50 micrograms/cm^2 | 99% | 90% | 78% | 0.73 micrograms/cm^2 | 0.7 micrograms/cm^2
O=S(=O)(C=CSc1cc(Cl)ccc1Cl)C=CSc1cc(Cl)ccc1Cl [Compound 4] | > 1.7 micrograms/cm^2 | > 1.7 micrograms/cm^2 | 1.2 micrograms/cm^2 | 39% | 80% | 70% | > 1.7 micrograms/cm^2 | 0.70 micrograms/cm^2 |  |  |  |  |  |  |  | 
O=S(=O)(C=CSc1ccc(Br)cc1)C=CSc1ccc(Br)cc1 [Compound 3, bis-2-(4-bromophenylthio)vinyl sulfone] | 0.73 micrograms/cm^2 | > 1.7 micrograms/cm^2 | 1.4 micrograms/cm^2 | 94% | 40% | 94% | > 1.7 micrograms/cm^2 | 1.4 micrograms/cm^2 |  |  |  |  |  |  |  | 
O=S(=O)(C=CSc1cccc(Cl)c1)C=CSc1cccc(Cl)c1 [Compound 2] | 1.1 micrograms/cm^2 | > 1.7 micrograms/cm^2 | 1.5 micrograms/cm^2 | 100% | 0% | 94% | > 1.7 micrograms/cm^2 | 1.2 micrograms/cm^2 |  |  |  |  |  |  |  | 

— patent publication US3984481A, “Bis-2-substituted-thiovinyl sulfones” (Chevron Research Company, priority 1976, dated 1976)
